Reference: publication PMC5094908 (Journal of applied toxicology : JAT, 2016)
Structures can show the parent of a compound that is named as a salt. Where two headings read alike, the source gives them in different places.

Columns and labels:
[1] = test system: SH-SY5Y and dSH-SY5Y cells; assay: qPCR of apoptosis-pathway genes after 6 h toxicant treatment; type: cell-based, human; conditions: MAP 12.5 µM, MALG 1.56 µM, MHG 1.56 µM, RSR 10 µM; for BIRC5 gene expression / BIRC3 gene expression: SH-SY5Y and dSH-SY5Y (either cell type); for BIRC5 gene expression / BAG3 expression: DTCM 10 µM; for BAG3 expression: both SH-SY5Y and dSH-SY5Y
[2] = test system: Caspase 3/7 activity in LUHMES and dLUHMES cells; assay: Caspase-Glo 3/7 luminescence assay, 24 h; type: cell-based, human
[3] = test system: HEK293, SH-SY5Y, SK-N-SH, or N2a; conditions: cited from earlier work
LUHMES and dLUHMES cells [4] = test system: LUHMES and dLUHMES cells
NSC and dNSC cells = conditions: 24 h exposure, [ATP], 0.78 to 100 µM
[5] = test system: SH-SY5Y and dSH-SY5Y cells
LUHMES and dLUHMES cells [6] = conditions: LUHMES, 1.56 µM RSR, 6 h; samples lost
[7] = test system: Caspase 3/7 activity in SH-SY5Y and dSH-SY5Y cells; assay: Caspase-Glo 3/7 luminescence assay, 24 h; type: cell-based
[8] = 24 h exposure, 0.78 to 100 µM, vs SH-SY5Y/dSH-SY5Y and NSC/dNSC

Molecule: [CH3][Hg+] [MHG, Methyl mercury (II)]
- BIRC5 gene expression [1]: down-regulation
- BIRC3 gene expression [1]: down-regulation
- BAG3 expression [1]: increased expression

Molecule: Cc1ccc2c(c1[N+](=O)[O-])C(=O)c1ccccc1C2=O [MNA, 2-Methyl-1-nitroanthraquinone]
- increase of Caspase 3/7 activity in dLUHMES ([2]; dLUHMES, 24 h, threshold […] above control): but not dLUHMES
- In vitro neural selectivity: neural-derived cell lines 10-fold more sensitive (10-fold lower IC50) than the median of the other 9 cell lines ([3]; qHTS cytotoxicity, ref Huang et al., 2008, Xia et al., 2008): HEK293 ([Huang et al., 2008], [Xia et al., 2008])
- cytotoxic sensitivity ([ATP] IC50) of LUHMES and/or dLUHMES relative to the other cell lines (LUHMES and dLUHMES cells [4]): more sensitive than the other cell lines

Molecule: Cc1c(O)cccc1C(=O)N[C@@H](CSc1ccccc1)[C@H](O)CN1C[C@H]2CCCC[C@H]2C[C@H]1C(=O)NC(C)(C)C [NLF, Nelfinavir]
- In vitro neural selectivity: neural-derived cell lines 10-fold more sensitive (10-fold lower IC50) than the median of the other 9 cell lines [3]: SH-SY5Y ([Huang et al., 2008], [Xia et al., 2008])
- cytotoxic sensitivity ([ATP] IC50) of LUHMES and/or dLUHMES relative to the other cell lines (LUHMES and dLUHMES cells [4]): more sensitive than the other cell lines

Molecule: CCCCCCCCn1sccc1=O [OTZ, 2-octyl-4-isothiazolin-3-one]
- In vitro neural selectivity: neural-derived cell lines 10-fold more sensitive (10-fold lower IC50) than the median of the other 9 cell lines [3]: SH-SY5Y ([Huang et al., 2008], [Xia et al., 2008])
- cytotoxic sensitivity ([ATP] IC50) of LUHMES and/or dLUHMES relative to the other cell lines (LUHMES and dLUHMES cells [4]): more sensitive than the other cell lines
- relative cytotoxic sensitivity of NSC versus dNSC (NSC and dNSC cells): NSC more sensitive than dNSC

Molecule: C=C(C)[C@H]1Cc2c(ccc3c2O[C@@H]2COc4cc(OC)c(OC)cc4[C@@H]2C3=O)O1 [ROTE, Rotenone]
- cytotoxic sensitivity of dSH-SY5Y cells relative to SH-SY5Y cells [5]: more sensitive
- relative cytotoxic sensitivity of LUHMES versus dLUHMES cells (LUHMES and dLUHMES cells [4]): LUHMES cells were more sensitive than dLUHMES cells
- cytotoxic sensitivity ([ATP] IC50) of LUHMES and/or dLUHMES relative to the other cell lines (LUHMES and dLUHMES cells [4]; [8]): more sensitive than the other cell lines

Molecule: c1cc(OCC2CO2)cc(OCC2CO2)c1 (stereo not shown) [RSR, Resorcinol diglycidyl ether]
- BIRC5 gene expression [1]: did not respond detectably
- BIRC3 gene expression [1]: did not respond detectably
- BAG3 expression [1]: weakly
- cytotoxicity seen in samples treated for qPCR (LUHMES and dLUHMES cells [6]): excessive cytotoxicity
- In vitro neural selectivity: neural-derived cell lines 10-fold more sensitive (10-fold lower IC50) than the median of the other 9 cell lines [3]: SH-SY5Y ([Huang et al., 2008], [Xia et al., 2008])
- cytotoxic sensitivity ([ATP] IC50) of LUHMES and/or dLUHMES relative to the other cell lines (LUHMES and dLUHMES cells [4]; [8]): more sensitive than the other cell lines
- peak Caspase 3/7 activities, ranking among compounds [7]: highest activities
- relative cytotoxic sensitivity of NSC versus dNSC (NSC and dNSC cells): the converse was true

Molecule: [CH3][Sn]([CH3])([CH3])[Cl] [TMT, Trimethyltin chloride]
- cytotoxic sensitivity ([ATP] IC50) of LUHMES and/or dLUHMES relative to the other cell lines (LUHMES and dLUHMES cells [4]; [8]): more sensitive than the other cell lines
- relative cytotoxic sensitivity of LUHMES versus dLUHMES cells (LUHMES and dLUHMES cells [4]; 24 h exposure, [ATP], 0.78 to 100 µM): dLUHMES cells were markedly more sensitive than LUHMES cells

Molecule: CC[C@]1(O)C[C@H]2CN(CCc3c([nH]c4ccccc34)[C@@](C(=O)OC)(c3cc4c(cc3OC)N(C=O)[C@H]3[C@@](O)(C(=O)OC)[C@H](OC(C)=O)[C@]5(CC)C=CCN6CC[C@]43[C@@H]65)C2)C1 [VIN, Vincristine sulfate]
- cytotoxic sensitivity ([ATP] IC50) of LUHMES and/or dLUHMES relative to the other cell lines (LUHMES and dLUHMES cells [4]): more sensitive than the other cell lines

Molecule: Aflatoxin B1
- increase of Caspase 3/7 activity in dLUHMES [2]: but not dLUHMES
- cytotoxic sensitivity ([ATP] IC50) of LUHMES and/or dLUHMES relative to the other cell lines (LUHMES and dLUHMES cells [4]): more sensitive than the other cell lines
- relative cytotoxic sensitivity of LUHMES versus dLUHMES cells (LUHMES and dLUHMES cells [4]): LUHMES cells were more sensitive than dLUHMES cells

Molecule: Sodium dichromate [CR2]
- In vitro neural selectivity: neural-derived cell lines 10-fold more sensitive (10-fold lower IC50) than the median of the other 9 cell lines [3]: SH-SY5Y ([Huang et al., 2008], [Xia et al., 2008])

Molecule: Tunicamycin [TUNC]
- cytotoxic sensitivity ([ATP] IC50) of LUHMES and/or dLUHMES relative to the other cell lines (LUHMES and dLUHMES cells [4]; [8]): more sensitive than the other cell lines

Molecule: Ziram
- In vitro neural selectivity: neural-derived cell lines 10-fold more sensitive (10-fold lower IC50) than the median of the other 9 cell lines [3]: SH-SY5Y ([Huang et al., 2008], [Xia et al., 2008])
